Counter-ions that a name gives are not always drawn.

For data set [1], the system named is ventricular muscle refractory period. Nature of the data set: Influence on ventricular muscle refractory period (ERP). Type of data set: in vivo, dog (mongrel adult dog). The settings on record: Canis lupus familiaris, iv, i.v., anesthetized dog, change vs before administration, read-out: ERP (%; extensibility of refractory period). As to the method:
(2) Influence on ventricular muscle refractory period:
Refractory periods were measured in the following manner before and after each of the compounds and d-sotalol shown in Table 1 was separately administered to a vein or a duodenum, and ERP (%; extensibility of refractory period) was calculated from the measured values in accordance with the following formula: […]
W: Refractory period after administration
Y: Refractory period before administration
To a mongrel adult dog, 30 mg/kg of pentobarbital was administered intravenously, and after being anesthetized, a pair of silver-silver chloride electrodes separated by 3 mm was sewn on an opened right ventricule, and electrical stimulation was given at an interval of 400 msec at a duration time of 4 msec under a current twice as much as the threshold. Afterward, a small amount of alcohol was injected into a sinus artery in order to extinguish a pacemaker activity, and the ventricular refractory period (ERP) was measured under ventricule pacing.
That is, 1 train comprised 10 stimulations, and an interval between two of the trains was usually 400 msec. At the time of the refractory period measurement, however, the above interval was shortened every 10 smec, and the interval between the trains at the time when reaction to the first stimulation of the train disappeared was regarded as the refractory period.
In this case, the electrical stimulation was fed in accordance with a program by a heart stimulation device (Diamedical Co., Ltd.; DHM-226-3).

Data set [2] has as its system Purkinje fiber of the right ventricular free wall. Put plainly: Influence on myocardial action potential duration time (APD75), isolated right ventricular free wall. Set-up: species or system dog (hybrid adult dog). The settings on record: Canis lupus familiaris, 20 min, 20 minutes' incubation; for APD75 prolongation (% change vs before administration) at 1 µg/mL: dose 1.0 μg/ml; for APD75 prolongation (% change vs before administration) at 3 µg/mL: dose 3.0 μg/ml; for APD75 prolongation (% change vs before administration) at 10 µg/mL: dose 10.0 μg/ml. As to the method: (1) Influence on myocardial action potential duration time (APD75): To a hybrid adult dog, 30 mg/kg of pentobarbital was administered through a vein, and after being anesthetized, the heart was removed. Afterward, the right ventricular free wall of the heart was cut and taken out in a Tyrode solution. […] In this isolated condition, myocardial action potential duration times (APD75) were measured before and after the administration of the respective compounds prepared in the above examples in Table 1 and d-sotalol as a control medicine, and APD75 (%) was calculated from the measured results in accordance with the formula: APD75 (%)=([…]75 before administration B: APD75 after administration Here, APD75 was measured as follows: […] This measured time was regarded as the myocardial action potential duration time (APD75). […] Incidentally, this test was carried out in accordance with a Sato et al's method [H. Sato, K. Hashimoto, Arzneimeittel Forschung, 34 (1), 3a, 376-380 (1984)].

Data set [3] is described as follows: Toxicity test, mortality 24 hours after oral administration. The settings on record: mouse, in vivo, 300 mg/kg p.o., mice, 24 hours after administration, read-out: Mortality Rate (%). As to the method: Each of the compounds prepared in the above-mentioned examples shown in Table 2 was administered into a mouse (ddy strain, male). In each case, the administration was effected by oral administration (p.o.) in a dose of 300 mg/kg.
A mortality rate (number of specimens: one group=2 to 4 mice) of the mice 24 hours after the administration was calculated, and the results are set forth in Table 2.

In the case of `Cc1coc2cccc(OCCCN3CCN(c4cc(=O)n(C)c(=O)n4C)CC3)c2c1=O` [Compound 4, 1,3-dimethyl-6-(4-[3-(3-methyl-4-oxo-4H-1-benzopyran-5-yl)oxypropyl]piperazine-1-yl)-2,4(1H,3H)-pyrimidinedione hydrochloride], in data set [1], the change in vivo at 0.1 mg/kg came out at 6.3%, the change in vivo at 0.3 mg/kg was found to be 12.5%, the change in vivo at 1 mg/kg was 12.5% and the change in vivo at 3 mg/kg was found to be 25%. Besides, in data set [2], the APD75 prolongation (% change vs before administration) at 1 µg/mL was 24% and the APD75 prolongation (% change vs before administration) at 3 µg/mL amounted to 30%. In data set [3], the mortality at 24 h came to 0%.

With `Cc1oc2cccc(OCCCN3CCN(c4cc(=O)n(C)c(=O)n4C)CC3)c2c(=O)c1C` [Compound 7, 1,3-dimethyl-6-(4-[3-(2,3-dimethyl-4-oxo-4H-1-benzopyran-5-yl)oxypropyl]piperazine-1-yl)-2,4(1H,3H)-pyrimidinedione oxalate], in data set [1], the change in vivo at 0.1 mg/kg turned out to be 12%, the change in vivo at 0.3 mg/kg is 18%, the change in vivo at 1 mg/kg is 18% and the change in vivo at 3 mg/kg was determined as 24%. In data set [2], this molecule registered an APD75 prolongation (% change vs before administration) at 1 µg/mL of 25% and an APD75 prolongation (% change vs before administration) at 3 µg/mL of 31%. In addition, the mortality at 24 h in data set [3] amounted to 0%.

Take `CCN(CCCOc1cccc2occ(C)c(=O)c12)CCNc1cc(=O)n(C)c(=O)n1C` [Compound 14, 1,3-dimethyl-6-(2-[N-ethyl-N-[3-(3-methyl-4-oxo-4H-1-benzopyran-5-yl)oxypropyl]amino[ethylamino)-2,4(1H,3H)-pyrimidinedione oxalate]: in data set [1], the change in vivo at 0.1 mg/kg was determined as 6.8%, the change in vivo at 0.3 mg/kg worked out at 6.8%, the change in vivo at 1 mg/kg was determined as 10.7% and the change in vivo at 3 mg/kg was determined as 13.6%. In addition, in data set [2], the APD75 prolongation (% change vs before administration) at 1 µg/mL stood at 4%, the APD75 prolongation (% change vs before administration) at 3 µg/mL is 17% and the APD75 prolongation (% change vs before administration) at 10 µg/mL was found to be 25%. Also, in data set [3], the mortality at 24 h came to 0%.

For the molecule `Cn1c(N2CCN(CCCOc3cccc4c3C(=O)CC(c3ccccc3)O4)CC2)cc(=O)n(C)c1=O` (stereo not drawn) [Compound 21, 1,3-dimethyl-6-(4-[3-(2-phenyl-4-oxo-2,3-dihydro-4H-1-benzopyran-5-yl)oxypropyl]piperazine-1-yl)-2,4(1H,3H)-pyrimidinedione oxalate], in data set [1], the change in vivo at 0.1 mg/kg was found to be 0%, the change in vivo at 0.3 mg/kg stood at 0%, the change in vivo at 1 mg/kg came out at 0% and the change in vivo at 3 mg/kg was determined as 7.7%. In data set [2], this molecule showed an APD75 prolongation (% change vs before administration) at 1 µg/mL of 12%, an APD75 prolongation (% change vs before administration) at 3 µg/mL of 16% and an APD75 prolongation (% change vs before administration) at 10 µg/mL of 20%. Further, the mortality at 24 h in data set [3] stood at 0%.

In the case of `Cn1c(N2CCN(CCCOc3cccc4oc(-c5ccncc5)cc(=O)c34)CC2)cc(=O)n(C)c1=O` [Compound 25, 1,3-dimethyl-6-(4-[3-[2-(pyridine-4-yl)-4-oxo-4H-1-benzopyran-5-yl]oxypropyl]piperazine-1-yl)-2,4(1H,3H)-pyrimidinedione dihydrochloride], in data set [1], the change in vivo at 0.1 mg/kg was 6.3%, the change in vivo at 0.3 mg/kg was 6.7% and the change in vivo at 1 mg/kg was 12.5%. Besides, in data set [2], the APD75 prolongation (% change vs before administration) at 1 µg/mL worked out at 7%, the APD75 prolongation (% change vs before administration) at 3 µg/mL turned out to be 19% and the APD75 prolongation (% change vs before administration) at 10 µg/mL came out at 27%. Also, the mortality at 24 h in data set [3] worked out at 0%.

As to `Cn1c(N2CCN(CCCOc3cccc4occc(=O)c34)CC2)cc(=O)n(C)c1=O` [Compound 38, 1,3-Dimethyl-6-(4-[3-(4-oxo-4H-1-benzopyran-5-yl)oxypropyl]pyperazine-1-yl)-2,4(1H,3H)-pyrimidinedione hydrochloride], in data set [1], the change in vivo at 0.1 mg/kg came out at 4.5%, the change in vivo at 0.3 mg/kg turned out to be 9.3%, the change in vivo at 1 mg/kg was 16% and the change in vivo at 3 mg/kg is 16%. In data set [2], this molecule returned an APD75 prolongation (% change vs before administration) at 1 µg/mL of 10%, an APD75 prolongation (% change vs before administration) at 3 µg/mL of 20% and an APD75 prolongation (% change vs before administration) at 10 µg/mL of 39%. In data set [3], the mortality at 24 h stood at 0%.

For the molecule `Cn1c(N2CCN(CCCOc3cccc4oc(-c5ccccc5)cc(=O)c34)CC2)cc(=O)n(C)c1=O` [Compound 39, 1,3-Dimethyl-6-(4-[3-(2-phenyl-4-oxo-4H-1-benzopyran-5-yl)oxypropyl]piperazine-1-yl)-2,4(1H,3H)-pyrimidinedione oxalate], in data set [1], the change in vivo at 0.1 mg/kg stood at 7.1%, the change in vivo at 0.3 mg/kg worked out at 14.3%, the change in vivo at 1 mg/kg amounted to 14.3% and the change in vivo at 3 mg/kg was 14.3%. Also, in data set [2], the APD75 prolongation (% change vs before administration) at 1 µg/mL came out at 7% and the APD75 prolongation (% change vs before administration) at 3 µg/mL is 20%. Also, the mortality at 24 h in data set [3] came out at 0%.

`Cc1cc(=O)c2c(OCCCN3CCN(c4cc(=O)n(C)c(=O)n4C)CC3)cccc2o1` [Compound 40, 1,3-Dimethyl-6-(4-[3-(2-methyl-4-oxo-4H-1-benzopyran-5-yl)oxypropyl-piperazine-1-yl)-2,4(1H,3H)-pyrimidinedione hydrochloride]: in data set [1], the change in vivo at 0.1 mg/kg stood at 6.9%, the change in vivo at 0.3 mg/kg turned out to be 10.3%, the change in vivo at 1 mg/kg was 13.9% and the change in vivo at 3 mg/kg came out at 17.4%. In data set [2], this molecule came in with an APD75 prolongation (% change vs before administration) at 1 µg/mL of 18%, an APD75 prolongation (% change vs before administration) at 3 µg/mL of 25% and an APD75 prolongation (% change vs before administration) at 10 µg/mL of 29%. The mortality at 24 h in data set [3] is 0%.

As to `Cn1c(N2CCN(CCCOc3ccc4c(=O)cc(-c5ccccc5)oc4c3)CC2)cc(=O)n(C)c1=O` [Compound 48, 1,3-Dimethyl-6-(4-[3-(2-phenyl-4-oxo-4H-1-benzopyran-7-yl)oxypropyl]piperazine-1-yl)-2,4(1H,3H)-pyrimidinedione oxalate], in data set [1], the change in vivo at 0.1 mg/kg is 0%, the change in vivo at 0.3 mg/kg amounted to 0%, the change in vivo at 1 mg/kg amounted to 6.9% and the change in vivo at 3 mg/kg stood at 20.4%. In data set [2], this molecule yielded an APD75 prolongation (% change vs before administration) at 1 µg/mL of 7% and an APD75 prolongation (% change vs before administration) at 3 µg/mL of 12%.

As for `CCOC(=O)c1cc(=O)c2ccc(OCCCN3CCN(c4cc(=O)n(C)c(=O)n4C)CC3)cc2o1` [Compound 50, 1,3-Dimethyl-6-(4-[3-(2-ethoxycarbonyl-4-oxo-4H-1-benzopyran-7-yl)oxypropyl]piperazine-1-yl)-2,4-(1H,3H)-pyrimidinedione oxalate], in data set [1], the change in vivo at 0.1 mg/kg was 0%, the change in vivo at 0.3 mg/kg was 0%, the change in vivo at 1 mg/kg came out at 0% and the change in vivo at 3 mg/kg worked out at 6.3%. Moreover, in data set [2], the APD75 prolongation (% change vs before administration) at 1 µg/mL came out at 7%, the APD75 prolongation (% change vs before administration) at 3 µg/mL was found to be 14% and the APD75 prolongation (% change vs before administration) at 10 µg/mL is 28%.

`CC(C)NCC(O)c1ccc(NS(C)(=O)=O)cc1` (stereo not drawn) [d-sotalol, reference compound]: in data set [1], the change in vivo at 0.1 mg/kg was determined as 1.7%, the change in vivo at 0.3 mg/kg was determined as 6.7%, the change in vivo at 1 mg/kg was 8.7% and the change in vivo at 3 mg/kg came to 15.5%. Moreover, the APD75 prolongation (% change vs before administration) at 0.3 µg/mL in data set [2] (dose 0.3 μg/ml) is 0%. Also, in data set [2], the APD75 prolongation (% change vs before administration) at 1 µg/mL came to 3%, the APD75 prolongation (% change vs before administration) at 3 µg/mL turned out to be 7.4% and the APD75 prolongation (% change vs before administration) at 10 µg/mL came to 15.8%.

In general, mortality refers to the percentage killed.

These data come from US5114941A, “Pyrimidinedione derivative compounds, method for preparing same, and antiarrythmic agents containing same” (Mitsui Toatsu Chemicals, Incorporated, priority 1989, dated 1992).
